The results in this text go back to ChEMBL document CHEMBL5150077, “Identification of TUL01101: A Novel Potent and Selective JAK1 Inhibitor for the Treatment of Rheumatoid Arthritis” (J Med Chem, 2022).

Test [1] addresses Tyrosine-protein kinase JAK1 (Homo sapiens, UniProt P23458). Briefly: Inhibition of recombinant human JAK1 using MGEEPLYWSFPAKKK as substrate incubated for 40 mins in presence of Mg/ATP mixture by [gamma p33]-ATP based scintillation counting method.
Test [2] deals with T1, Tyrosine-protein kinase JAK3 (Homo sapiens, UniProt P52333).
T1 sequence (P52333 whole entry): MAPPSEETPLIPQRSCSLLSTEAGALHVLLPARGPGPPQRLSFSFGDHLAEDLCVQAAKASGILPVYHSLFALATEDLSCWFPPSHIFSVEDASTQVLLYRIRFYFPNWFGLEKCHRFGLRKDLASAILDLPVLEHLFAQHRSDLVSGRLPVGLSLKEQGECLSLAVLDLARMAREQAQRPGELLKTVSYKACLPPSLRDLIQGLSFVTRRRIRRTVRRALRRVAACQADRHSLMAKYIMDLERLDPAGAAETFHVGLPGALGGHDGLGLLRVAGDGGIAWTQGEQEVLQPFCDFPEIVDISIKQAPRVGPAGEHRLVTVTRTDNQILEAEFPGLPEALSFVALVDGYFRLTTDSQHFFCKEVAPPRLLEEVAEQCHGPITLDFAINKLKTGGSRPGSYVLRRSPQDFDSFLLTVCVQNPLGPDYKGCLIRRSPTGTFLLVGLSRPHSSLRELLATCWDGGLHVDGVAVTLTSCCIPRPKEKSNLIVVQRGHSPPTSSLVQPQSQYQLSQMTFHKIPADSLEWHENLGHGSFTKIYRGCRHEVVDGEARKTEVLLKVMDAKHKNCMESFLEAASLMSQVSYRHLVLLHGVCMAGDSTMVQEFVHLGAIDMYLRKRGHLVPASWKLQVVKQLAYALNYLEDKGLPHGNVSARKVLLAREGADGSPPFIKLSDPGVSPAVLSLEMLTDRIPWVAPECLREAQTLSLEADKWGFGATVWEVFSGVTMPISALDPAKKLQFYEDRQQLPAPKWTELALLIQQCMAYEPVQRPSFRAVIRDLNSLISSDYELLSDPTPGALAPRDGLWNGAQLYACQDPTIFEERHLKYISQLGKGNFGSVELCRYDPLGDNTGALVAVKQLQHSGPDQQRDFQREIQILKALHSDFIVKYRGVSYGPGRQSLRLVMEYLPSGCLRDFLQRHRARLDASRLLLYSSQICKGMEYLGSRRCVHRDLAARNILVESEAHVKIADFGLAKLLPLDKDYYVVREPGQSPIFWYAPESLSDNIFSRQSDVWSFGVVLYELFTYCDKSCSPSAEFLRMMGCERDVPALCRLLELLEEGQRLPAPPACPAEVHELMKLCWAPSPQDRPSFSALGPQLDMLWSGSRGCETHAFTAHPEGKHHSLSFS
Briefly: Inhibition of recombinant human JAK3 using GGEEEEYFELVKKKK as substrate incubated for 40 mins in presence of Mg/ATP mixture by [gamma p33]-ATP based scintillation counting method.

Test [3] deals with Non-receptor tyrosine-protein kinase TYK2 (Homo sapiens, UniProt P29597). The test can be described thus: Inhibition of recombinant human TYK2 using GGMEDIYFEFMGGKKK as substrate incubated for 40 mins in presence of Mg/ATP mixture by [gamma p33]-ATP based scintillation counting method.
For test [4], the species on record is Homo sapiens. The test can be described thus: Selectivity index, ratio of IC50 for inhibition of recombinant human JAK2 to IC50 for inhibition of recombinant human JAK1.
Test [5] is filed under the species Homo sapiens. The test can be described thus: Selectivity index, ratio of IC50 for inhibition of recombinant human TYK2 to IC50 for inhibition of recombinant human JAK1.
Test [6] has as its target Tyrosine-protein kinase JAK2 (Homo sapiens, UniProt O60674). The test can be described thus: Inhibition of recombinant human JAK2 using KTFCGTPEYLAPEVRREPRILSEEEQEMFRDFDYIADWC as substrate incubated for 40 mins in presence of Mg/ATP mixture by [gamma p33]-ATP based scintillation counting method.

Tyrosine-protein kinase JAK1, sequence (P23458 whole entry): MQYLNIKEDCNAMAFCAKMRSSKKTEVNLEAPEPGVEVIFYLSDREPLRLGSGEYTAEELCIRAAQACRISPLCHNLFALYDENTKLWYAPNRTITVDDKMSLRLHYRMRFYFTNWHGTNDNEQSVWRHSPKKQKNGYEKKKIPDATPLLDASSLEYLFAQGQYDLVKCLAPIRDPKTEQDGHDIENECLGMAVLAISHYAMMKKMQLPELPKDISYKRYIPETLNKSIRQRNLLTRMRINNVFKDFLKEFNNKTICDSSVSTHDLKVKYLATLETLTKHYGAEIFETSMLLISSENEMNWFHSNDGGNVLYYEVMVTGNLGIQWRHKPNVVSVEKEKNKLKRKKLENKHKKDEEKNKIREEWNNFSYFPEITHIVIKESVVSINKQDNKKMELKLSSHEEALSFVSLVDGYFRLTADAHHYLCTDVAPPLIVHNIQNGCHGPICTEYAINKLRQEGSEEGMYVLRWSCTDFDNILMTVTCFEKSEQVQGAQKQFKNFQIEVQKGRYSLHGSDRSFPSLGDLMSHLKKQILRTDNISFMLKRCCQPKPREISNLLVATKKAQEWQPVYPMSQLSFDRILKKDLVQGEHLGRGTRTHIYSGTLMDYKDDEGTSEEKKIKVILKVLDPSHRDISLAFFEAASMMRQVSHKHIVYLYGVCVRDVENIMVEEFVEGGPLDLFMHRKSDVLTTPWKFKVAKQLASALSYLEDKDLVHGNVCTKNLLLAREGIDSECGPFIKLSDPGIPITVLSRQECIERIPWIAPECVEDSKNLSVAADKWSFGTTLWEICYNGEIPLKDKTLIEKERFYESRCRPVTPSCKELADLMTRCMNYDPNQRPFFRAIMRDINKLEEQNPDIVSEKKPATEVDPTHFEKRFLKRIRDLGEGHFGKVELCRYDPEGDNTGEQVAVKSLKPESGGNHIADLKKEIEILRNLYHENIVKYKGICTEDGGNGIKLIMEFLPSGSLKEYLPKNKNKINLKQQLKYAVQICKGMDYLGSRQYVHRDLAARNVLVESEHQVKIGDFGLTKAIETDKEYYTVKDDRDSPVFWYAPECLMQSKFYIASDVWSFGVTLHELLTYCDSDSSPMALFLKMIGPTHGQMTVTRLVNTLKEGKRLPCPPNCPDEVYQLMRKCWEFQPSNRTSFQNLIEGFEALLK
Non-receptor tyrosine-protein kinase TYK2, sequence (P29597 whole entry): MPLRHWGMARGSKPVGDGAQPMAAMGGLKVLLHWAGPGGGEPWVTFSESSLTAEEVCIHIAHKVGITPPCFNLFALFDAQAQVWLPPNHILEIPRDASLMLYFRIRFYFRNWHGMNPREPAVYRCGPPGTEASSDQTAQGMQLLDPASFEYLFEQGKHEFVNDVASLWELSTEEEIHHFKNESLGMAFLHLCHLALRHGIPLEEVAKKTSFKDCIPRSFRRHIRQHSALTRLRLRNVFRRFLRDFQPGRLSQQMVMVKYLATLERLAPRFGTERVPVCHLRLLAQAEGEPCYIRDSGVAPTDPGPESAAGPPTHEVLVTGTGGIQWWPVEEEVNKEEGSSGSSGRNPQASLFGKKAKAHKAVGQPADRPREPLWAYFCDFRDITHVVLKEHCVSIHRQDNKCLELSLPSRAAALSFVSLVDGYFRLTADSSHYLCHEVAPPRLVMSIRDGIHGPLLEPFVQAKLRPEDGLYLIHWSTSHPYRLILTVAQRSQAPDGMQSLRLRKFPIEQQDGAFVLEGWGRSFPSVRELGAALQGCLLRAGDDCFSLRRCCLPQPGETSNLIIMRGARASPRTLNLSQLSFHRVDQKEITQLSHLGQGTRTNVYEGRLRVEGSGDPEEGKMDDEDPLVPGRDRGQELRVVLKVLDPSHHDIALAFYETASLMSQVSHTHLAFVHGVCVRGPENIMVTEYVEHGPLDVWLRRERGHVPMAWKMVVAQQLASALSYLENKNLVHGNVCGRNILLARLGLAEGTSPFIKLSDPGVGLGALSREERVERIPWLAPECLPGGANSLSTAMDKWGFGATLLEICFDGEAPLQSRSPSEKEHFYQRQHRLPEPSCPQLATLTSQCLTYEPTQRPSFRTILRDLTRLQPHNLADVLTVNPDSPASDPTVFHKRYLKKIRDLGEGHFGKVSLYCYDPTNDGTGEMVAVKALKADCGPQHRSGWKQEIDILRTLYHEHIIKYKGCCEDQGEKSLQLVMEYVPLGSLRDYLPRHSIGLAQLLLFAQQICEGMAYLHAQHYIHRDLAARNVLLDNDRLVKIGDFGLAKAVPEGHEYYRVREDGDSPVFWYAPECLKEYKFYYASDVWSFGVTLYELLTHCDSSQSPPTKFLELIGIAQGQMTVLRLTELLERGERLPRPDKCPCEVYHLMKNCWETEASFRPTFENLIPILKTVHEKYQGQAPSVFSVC
Tyrosine-protein kinase JAK2, sequence (O60674 whole entry): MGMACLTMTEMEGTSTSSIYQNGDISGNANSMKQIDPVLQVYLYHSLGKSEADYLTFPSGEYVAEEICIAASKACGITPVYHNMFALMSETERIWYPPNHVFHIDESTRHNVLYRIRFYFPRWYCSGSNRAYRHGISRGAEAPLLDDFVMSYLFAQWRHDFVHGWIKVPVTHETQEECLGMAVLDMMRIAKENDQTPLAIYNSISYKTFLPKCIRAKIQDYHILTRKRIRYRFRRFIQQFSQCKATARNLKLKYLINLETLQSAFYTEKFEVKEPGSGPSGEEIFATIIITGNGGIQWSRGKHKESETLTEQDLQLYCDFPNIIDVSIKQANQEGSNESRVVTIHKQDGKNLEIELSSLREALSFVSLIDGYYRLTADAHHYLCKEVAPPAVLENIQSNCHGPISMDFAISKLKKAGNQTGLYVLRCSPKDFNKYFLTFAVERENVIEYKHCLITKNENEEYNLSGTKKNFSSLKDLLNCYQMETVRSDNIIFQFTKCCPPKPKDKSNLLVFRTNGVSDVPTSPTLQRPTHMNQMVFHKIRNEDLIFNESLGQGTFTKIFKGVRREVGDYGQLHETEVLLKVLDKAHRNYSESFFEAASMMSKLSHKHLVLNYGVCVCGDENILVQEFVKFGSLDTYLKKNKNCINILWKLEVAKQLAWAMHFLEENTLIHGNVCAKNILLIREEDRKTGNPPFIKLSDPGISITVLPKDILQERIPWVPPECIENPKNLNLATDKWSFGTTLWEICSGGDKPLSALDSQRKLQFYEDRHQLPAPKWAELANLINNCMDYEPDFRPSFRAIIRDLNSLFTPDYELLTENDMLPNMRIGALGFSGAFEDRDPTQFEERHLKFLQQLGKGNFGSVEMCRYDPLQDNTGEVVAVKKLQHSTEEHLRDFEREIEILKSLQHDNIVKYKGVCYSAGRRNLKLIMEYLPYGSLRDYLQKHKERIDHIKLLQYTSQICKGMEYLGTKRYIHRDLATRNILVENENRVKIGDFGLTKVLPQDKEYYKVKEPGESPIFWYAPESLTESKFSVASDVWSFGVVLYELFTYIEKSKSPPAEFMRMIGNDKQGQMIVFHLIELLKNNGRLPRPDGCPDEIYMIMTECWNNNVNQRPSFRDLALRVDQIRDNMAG

Regarding `N#CC1(C(=O)N2CC3(CCC(c4cccc5nc(NC(=O)C6CC6)nn45)CC3)C2)CC1`, the half-inhibitory concentration (IC50) is 15 nM in test [1], above 10000 nM in test [2] and 18 nM in test [3].
On to `O=C(Nc1nc2cccc(C3=CC[C@H](NC(=O)[C@H]4CC4(F)F)CC3)n2n1)C1CC1`, for which the Ratio IC50 in the test listed under Homo sapiens [4] came to 7.4; in the test filed under Homo sapiens [5], 4.2.
For `O=C(Nc1nc2cccc(C3=CCC(NC(=O)C4CC4(F)F)CC3)n2n1)C1CC1` (stereo not drawn), in that order: 11.9 and 3.6.
As to `O=C(Nc1nc2cccc([C@H]3CCC4(CCN(C(=O)[C@@H]5CC5(F)F)CC4)C3)n2n1)C1CC1`, the 50% inhibitory concentration (IC50) came out at 63 nM in test [1], 998 nM in test [6], 9390 nM in test [2] and 829 nM in test [3]. The Ratio IC50 in the test listed under Homo sapiens [4] turned out to be 15.8; in the test listed under Homo sapiens [5], 13.2.
Take `O=C(Nc1nc2cccc([C@H]3CC[C@@H](NC(=O)[C@H]4CC4(F)F)CC3)n2n1)C1CC1`: the IC50 in test [1] was 48 nM; in test [6] it was 962 nM; in test [2], above 10000 nM; in test [3] it was 455 nM. Further, the Ratio IC50 in the test listed under Homo sapiens [4] is 20; in the test listed under Homo sapiens [5], 9.5.
In the case of `O=C(Nc1nc2cccc([C@H]3CC[C@H](NC(=O)[C@@H]4CC4(F)F)CC3)n2n1)C1CC1`, the concentration for half-maximal inhibition (IC50) is 181 nM in test [1], 4750 nM in test [6], above 10000 nM in test [2] and 1740 nM in test [3]. The values for the Ratio IC50 in the test listed under Homo sapiens [4] and in the test filed under Homo sapiens [5] were 26.3 and 9.6, respectively.
For the molecule `O=C(Nc1nc2cccc([C@H]3CCC4(C3)CN(C(=O)[C@@H]3CC3(F)F)C4)n2n1)C1CC1`, the IC50 is 63 nM in test [1], above 10000 nM in test [2] and 830 nM in test [3].
Consider `O=C(Nc1nc2cccc(C3=CC[C@H](NC(=O)[C@@H]4CC4(F)F)CC3)n2n1)C1CC1`, for which the IC50 in test [1] amounted to 12 nM; in test [6], 141 nM; in test [2] it was 5520 nM; in test [3], 78 nM. Also, the Ratio IC50 in the test listed under Homo sapiens [4] worked out at 11.8; in the test filed under Homo sapiens [5] it was 6.5.
With `O=C(Nc1nc2cccc(C3CCC4(CC3)CCN(C(=O)[C@H]3CC3(F)F)C4)n2n1)C1CC1` (stereo partly drawn), the half-inhibitory concentration (IC50) is 75 nM in test [1], 789 nM in test [6], 7350 nM in test [2] and 692 nM in test [3]. The Ratio IC50 is 10.5 in the test filed under Homo sapiens [4] and 9.2 in the test listed under Homo sapiens [5].
Turning to `O=C(Nc1nc2cccc(C3=CC[C@@H](NC(=O)[C@@H]4CC4(F)F)CC3)n2n1)C1CC1`, the IC50 in test [1] amounted to 163 nM; in test [3], 1370 nM. Besides, in the test listed under Homo sapiens [5], the Ratio IC50 came out at 8.4.
On to `O=C(Nc1nc2cccc(C3=CCN(C(=O)C4(F)CC4)C3)n2n1)C1CC1`, for which the Ratio IC50 in the test listed under Homo sapiens [4] is 2.1; in the test listed under Homo sapiens [5], 5.4.
`O=C(Nc1nc2cccc([C@@H]3CCC4(C3)CN(C(=O)[C@@H]3CC3(F)F)C4)n2n1)C1CC1`: the IC50 in test [1] is 176 nM; in test [2] it was above 10000 nM; in test [3], 404 nM.
As to `O=C(Nc1nc2cccc(C3=CCN(C(=O)C4CC4)CC3)n2n1)C1CC1`, the Ratio IC50 in the test listed under Homo sapiens [4] amounted to 4.7; in the test listed under Homo sapiens [5], 2.
Take `O=C(Nc1nc2cccc(C3=CCC(NC(=O)C4CC4)CC3)n2n1)C1CC1` (stereo not drawn): the values for the Ratio IC50 in the test filed under Homo sapiens [4] and in the test filed under Homo sapiens [5] were 9.5 and 3.3, respectively.
As to `O=C(Nc1nc2cccc(C3=CC[C@@H](NC(=O)[C@H]4CC4(F)F)CC3)n2n1)C1CC1`, the half-maximal inhibitory concentration (IC50) in test [1] is 166 nM; in test [3] it was 942 nM. For the same molecule, the Ratio IC50 in the test listed under Homo sapiens [5] was 5.7.
As to `N#CCN1CC2(CCC(c3cccc4nc(NC(=O)C5CC5)nn34)CC2)C1`, the IC50 in test [1] is 114 nM; in test [2], above 10000 nM; in test [3], 581 nM.
For `N#CCC(=O)N1CCC2(CCC(c3cccc4nc(NC(=O)C5CC5)nn34)CC2)C1` (stereo not drawn), the half-maximal inhibitory concentration (IC50) is 68 nM in test [1], 520 nM in test [6], above 10000 nM in test [2] and 278 nM in test [3]. For the same molecule, the Ratio IC50 in the test filed under Homo sapiens [4] was found to be 7.6; in the test listed under Homo sapiens [5], 4.1.
Consider `CC(C)(C#N)C(=O)N1CC2(CCC(c3cccc4nc(NC(=O)C5CC5)nn34)CC2)C1`, for which the concentration for half-maximal inhibition (IC50) in test [1] was found to be 20 nM; in test [2], 9670 nM; in test [3], 106 nM.
With `N#CCC(=O)N1CCC2(CCC(c3cccc4nc(NC(=O)C5CC5)nn34)CC2)CC1`, the concentration for half-maximal inhibition (IC50) in test [1] was 20 nM; in test [6] it was 80 nM; in test [2] it was 2320 nM; in test [3], 26 nM. Moreover, the Ratio IC50 in the test listed under Homo sapiens [4] turned out to be 4; in the test listed under Homo sapiens [5] it was 1.3.
With `O=C(Nc1nc2cccc([C@H]3CC[C@H](NC(=O)[C@H]4CC4(F)F)CC3)n2n1)C1CC1`, the IC50 in test [1] is 341 nM; in test [6] it was 8070 nM; in test [2], above 10000 nM; in test [3], 5760 nM. Also, the Ratio IC50 is 23.7 in the test filed under Homo sapiens [4] and 16.9 in the test listed under Homo sapiens [5].
As for `O=C(Nc1nc2cccc(C3CCC(NC(=O)C4CC4(F)F)CC3)n2n1)C1CC1` (stereo not drawn), the Ratio IC50 in the test listed under Homo sapiens [4] was found to be 7.7; in the test listed under Homo sapiens [5], 3.3.
Consider `N#CCCN1CC2(CCC(c3cccc4nc(NC(=O)C5CC5)nn34)CC2)C1`, for which the half-maximal inhibitory concentration (IC50) in test [1] is 65 nM; in test [2], above 10000 nM; in test [3] it was 371 nM.
In the case of `O=C(Nc1nc2cccc(C3=CCN(C(=O)C4CC4(F)F)C3)n2n1)C1CC1` (stereo not drawn), in test [2], the IC50 is above 10000 nM.
With `O=C(Nc1nc2cccc(C3CCC4(CC3)CCN(C(=O)CC(F)(F)F)CC4)n2n1)C1CC1`, the concentration for half-maximal inhibition (IC50) was 54 nM in test [1], 294 nM in test [6], above 10000 nM in test [2] and 155 nM in test [3]. The Ratio IC50 in the test listed under Homo sapiens [4] was found to be 5.4; in the test listed under Homo sapiens [5], 2.9.
With `O=C(Nc1nc2cccc([C@@H]3CCC4(CCN(C(=O)[C@@H]5CC5(F)F)CC4)C3)n2n1)C1CC1`, the IC50 in test [1] was 381 nM; in test [6] it was 1920 nM; in test [2], above 10000 nM; in test [3], 570 nM. In addition, the Ratio IC50 in the test listed under Homo sapiens [4] turned out to be 5; in the test listed under Homo sapiens [5] it was 1.5.
`O=C(Nc1nc2cccc(C3CCC4(CC3)CCN(C(=O)CC(F)(F)F)C4)n2n1)C1CC1` (stereo not drawn): the IC50 was 131 nM in test [1], 2730 nM in test [6], above 10000 nM in test [2] and 1530 nM in test [3]. Further, the results for the Ratio IC50 in the test filed under Homo sapiens [4] and in the test listed under Homo sapiens [5] were 20.8 and 11.6, respectively.
